Measurements taken from the METLIN SMRT retention time set (Domingo-Almenara et al. 2019).

Assay: gradient 5% acetonitrile 3 min, to 50% in 2 min, to 85% in 15 min, held 3 min, 100 µL/min
Conditions: column: Zorbax Extend-C18 2.1 x 50 mm; eluents: water / acetonitrile, 0.1% formic acid
Outline: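 The mobile phases were water and acetonitrile, each with 0.1% formic acid, pumped at 100 μL/min through a Zorbax Extend-C18 column (2.1 × 50 mm, 1.8 μm). Pure standards were injected as mixtures of ~100 molecules and detected by a quadrupole time-of-flight mass spectrometer in positive and negative ionization mode. Retention time came from computationally picked adduct peaks, each inspected by hand.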

Structure (SMILES): O=C(NCCC1=CCCCC1)C(=O)NCCN1CCN(c2ccc(F)cc2)CC1
- RP-LC retention time: 633 s

Structure (SMILES): CCCn1ccc2sc(C)c(C(=O)NCc3ccc(C)o3)c2c1=O
- RP-LC retention time: 867 s

Structure (SMILES): Cc1ccc(Nc2nc(C(=O)NCc3cccnc3)nc3ccccc23)cc1
- RP-LC retention time: 609 s

Structure (SMILES): COc1ccc(OC)c(NC(=O)N(C)CCc2noc(COc3ccccc3F)n2)c1
- RP-LC retention time: 932 s

Structure (SMILES): CCOc1ccc(-c2cn3ccn(-c4ccc(C)cc4C)c(=O)c3n2)cc1
- RP-LC retention time: 921 s

Structure (SMILES): CCOc1ccc(C(=O)N2CCC3(CC2)C(=O)N(C)c2ccccc23)cc1OCC
- RP-LC retention time: 842 s

Structure (SMILES): O=c1c2cc(-c3ccc(Br)cc3)nn2cnn1Cc1nc(-c2ccc(F)cc2)no1
- RP-LC retention time: 1210 s

Structure (SMILES): CCOC(=O)c1cnc2nc(C)ccc2c1Nc1ccc(Cl)cc1
- RP-LC retention time: 752 s

Structure (SMILES): COc1cccc(CNC(=O)Nc2ccc(-c3nc(-c4ccc(C)cc4C)co3)cc2)c1
- RP-LC retention time: 1170 s

Structure (SMILES): COc1ccccc1CNc1ncnc(N)c1[N+](=O)[O-]
- RP-LC retention time: 735 s

Structure (SMILES): CC(C)S(=O)(=O)N[C@H]1CCOC[C@@H]1c1ccc(-c2ccc(C#N)s2)cc1
- RP-LC retention time: 958 s

Structure (SMILES): CCC(Oc1ccc(=O)n(-c2ccc(F)cc2)n1)C(=O)Nc1cc(OC)c(OC)c(OC)c1 (stereo not drawn)
- RP-LC retention time: 592 s

Structure (SMILES): O=C(Cc1csc2nc(-c3cccc(Br)c3)cn12)Nc1ccccc1F
- RP-LC retention time: 958 s

Structure (SMILES): CCn1nc(C)c(CCNC(=O)c2ccc3nc(C(C)C)oc3c2)c1C
- RP-LC retention time: 662 s

Structure (SMILES): COc1ccc(NC(=O)Cn2c(C)cc(-c3nnc(C4CCC4)o3)c2C)cc1OC
- RP-LC retention time: 796 s

Structure (SMILES): CCOC(=O)c1ccc(Nc2c(-c3cccc(Cl)c3)nc3cnccn23)cc1
- RP-LC retention time: 978 s

Structure (SMILES): CCc1noc(NC(C)=O)c1-c1ccc(C)c(S(=O)(=O)Nc2ccccc2F)c1
- RP-LC retention time: 798 s

Structure (SMILES): Cc1ccccc1-c1nc2cnccn2c1NCCC(=O)NC(C)c1cccs1 (stereo not drawn)
- RP-LC retention time: 659 s

Structure (SMILES): CCc1nc(-c2csc(S(=O)(=O)N3CCCC(C(=O)Nc4ccccc4OC)C3)c2)no1 (stereo not drawn)
- RP-LC retention time: 1060 s

Structure (SMILES): O=C(Cn1c(=O)n(-c2ccccc2)c2ncccc21)NCCN1CCOCC1
- RP-LC retention time: 585 s

Structure (SMILES): CCn1c(=O)c2ccccc2n(Cc2nc(-c3ccc(C(F)(F)F)cc3)no2)c1=O
- RP-LC retention time: 1120 s

Structure (SMILES): COCCc1noc(C2CN(S(=O)(=O)c3cccnc3)C2)n1
- RP-LC retention time: 669 s

Structure (SMILES): CCc1ccc(Nc2nc(C(=O)NC)nc3ccccc23)cc1
- RP-LC retention time: 708 s

Structure (SMILES): COc1ccc(NC(=O)Nc2cc(-c3cn4cccnc4n3)ccc2C)cc1
- RP-LC retention time: 590 s

Structure (SMILES): Cc1nc(-c2ccccc2)nc2c1CCC(=O)N2C
- RP-LC retention time: 868 s

Structure (SMILES): CCOc1ccc(NS(=O)(=O)c2cc(-c3nc(C(C)(C)C)cs3)cs2)cc1
- RP-LC retention time: 1240 s

Structure (SMILES): CCCC(NC(=O)Cc1ccc(OC)cc1Cl)C(=O)Nc1nc2ccccc2[nH]1 (stereo not drawn)
- RP-LC retention time: 730 s

Structure (SMILES): Cc1sc(NC(=O)c2cccc(Cn3cc(Br)cn3)c2)nc1-c1ccccc1
- RP-LC retention time: 1190 s

Structure (SMILES): O=C(CN1CCN(C(=O)c2cnn3c(-c4ccc5c(c4)OCO5)ccnc23)CC1)N1CCCCC1
- RP-LC retention time: 611 s

Structure (SMILES): CCS(=O)(=O)N1CCC[C@H](n2c(=O)n(C)c3cccnc32)C1
- RP-LC retention time: 698 s

Structure (SMILES): Cc1ccc2nc(-c3ccc(Cl)cc3)c(Nc3ccc4c(c3)OCO4)n2c1
- RP-LC retention time: 756 s

Structure (SMILES): CCOC(=O)C1CCC(CNC(=O)Nc2ccc(-c3nc(-c4ccccc4)co3)cc2)CC1 (stereo not drawn)
- RP-LC retention time: 1100 s

Structure (SMILES): O=C(c1cccs1)N1CCC2(CC1)NC(=O)N(Cc1ccccc1)C2=O
- RP-LC retention time: 741 s

Structure (SMILES): CS(=O)(=O)N1CCCc2cc(C(=O)Nc3ccccc3Br)ccc21
- RP-LC retention time: 927 s

Structure (SMILES): COc1ccc(CNC2=NCCNC23CCN(S(=O)(=O)c2cc(C)c(C)cc2C)CC3)cc1
- RP-LC retention time: 794 s

Structure (SMILES): Cc1nc2cc3c(cc2n1CC(=O)NCC1CCCO1)OCCO3 (stereo not drawn)
- RP-LC retention time: 567 s

Structure (SMILES): CCc1ccc(S(=O)(=O)N2CCC(n3cnnc3CC)CC2)cc1
- RP-LC retention time: 746 s

Structure (SMILES): COC(=O)c1c(-c2cccc(F)c2)noc1NCCc1c(C)noc1C
- RP-LC retention time: 968 s

Structure (SMILES): CC(C)c1cccc(NC(=O)C2CC(=O)N(c3cccc(NC(=O)C4CCC4)c3)C2)c1 (stereo not drawn)
- RP-LC retention time: 957 s

Structure (SMILES): Cc1ccccc1C(=O)N1CCN(CC(F)(F)F)CC1
- RP-LC retention time: 752 s

Structure (SMILES): Cc1ccc(-n2nc(C)c3c(C(F)(F)F)cc(OCC(=O)NCc4ccco4)nc32)cc1
- RP-LC retention time: 1220 s

Structure (SMILES): CC(=O)c1ccc(C)cc1OC(=O)c1cccc2nc(C)oc12
- RP-LC retention time: 661 s

Structure (SMILES): CCn1c(=O)c(=O)n(CC(=O)NC2CCCCCC2)c2cccnc21
- RP-LC retention time: 760 s

Structure (SMILES): O=C(Cn1cnc2c(sc3nc(-c4ccccc4)ccc32)c1=O)Nc1ccc(F)cc1F
- RP-LC retention time: 999 s

Structure (SMILES): O=C(Nc1ccc(N2CCN(C3CCCCC3)C2=O)nc1)c1ccc(F)cc1
- RP-LC retention time: 926 s

Structure (SMILES): COc1ccc(N2CCN(C(=O)C3CCCN(C(=O)c4[nH]c(C)cc4C)C3)CC2)cc1 (stereo not drawn)
- RP-LC retention time: 763 s

Structure (SMILES): O=S(=O)(c1cccc(-c2nc(-c3ccccc3)no2)c1)N1CCCC1
- RP-LC retention time: 1130 s

Structure (SMILES): CCOC(=O)C1CCCN(S(=O)(=O)c2cc(C(=O)N3CCCCC3)n(C)c2C)C1 (stereo not drawn)
- RP-LC retention time: 858 s

Structure (SMILES): Cc1ccc(NC(=O)N2CC(n3ccnc3C(C)C)C2)cc1C
- RP-LC retention time: 642 s

Structure (SMILES): O=S(=O)(c1cccc(C(F)(F)F)c1)N1CCOCC1
- RP-LC retention time: 794 s

Structure (SMILES): O=C(NCc1ccccc1)C1CCCN(c2ncnc3c2oc2ccccc23)C1 (stereo not drawn)
- RP-LC retention time: 754 s

Structure (SMILES): Cc1noc(C2CN(CCc3ccccc3)CC23CCCC3)n1 (stereo not drawn)
- RP-LC retention time: 674 s

Structure (SMILES): CC(C)N1CCn2cc(S(=O)(=O)Nc3ccc(C#N)cc3)cc2C1=O
- RP-LC retention time: 719 s

Structure (SMILES): CCOCC(=O)N1CC(F)(F)C[C@H]1c1nc(C(=O)NC)no1
- RP-LC retention time: 626 s

Structure (SMILES): O=C(NCc1ccco1)c1ccc(NS(=O)(=O)c2cccc(C(F)(F)F)c2)cc1
- RP-LC retention time: 818 s

Structure (SMILES): O=C(Nc1nc(C(=O)N2CCN(c3ncccn3)CC2)co1)c1ccccc1
- RP-LC retention time: 632 s

Structure (SMILES): CN(C)c1ncncc1N1CCC(C(=O)NC2CCCCCC2)CC1
- RP-LC retention time: 624 s

Structure (SMILES): Cc1ccc(NC(=O)Nc2cnn(-c3ncncc3N3CCOCC3)c2)cc1Cl
- RP-LC retention time: 695 s

Structure (SMILES): CCOc1ccc(N2CC(NC(=O)NCCc3ccc(S(N)(=O)=O)cc3)CC2=O)cc1 (stereo not drawn)
- RP-LC retention time: 617 s

Structure (SMILES): CCOC(=O)c1cccc(NC(=O)Cc2csc3nc(-c4ccc(OC)c(OC)c4)cn23)c1
- RP-LC retention time: 761 s

Structure (SMILES): CCC(c1ccccc1)c1nc(-c2ccc3nnn(C)c3c2)no1 (stereo not drawn)
- RP-LC retention time: 1100 s

Structure (SMILES): O=C(NC1CCN(c2cc(-c3ccc(F)cc3)[nH]n2)C1)c1cccc(Cl)c1 (stereo not drawn)
- RP-LC retention time: 774 s

Structure (SMILES): CCN1c2ccc(C)cc2C(=O)NC12CCN(C(=O)c1ccc3c(c1)OCO3)CC2
- RP-LC retention time: 788 s

Structure (SMILES): Cn1cccc1C(=O)C(=O)Nc1cccc2c1CCCC2
- RP-LC retention time: 928 s

Structure (SMILES): CCc1cc(=O)n(CC(=O)NCc2ccc(F)cc2)c(N2CCOCC2)n1
- RP-LC retention time: 717 s

Structure (SMILES): Cc1nc(-c2ccncc2)cc2nn(CC(=O)NCc3ccccc3)c(=O)n12
- RP-LC retention time: 697 s

Structure (SMILES): O=C(NC1CCN(Cc2ccccc2)CC1)c1cc2n(n1)CCCN(Cc1ccccc1)C2=O
- RP-LC retention time: 640 s

Structure (SMILES): Cc1cc(=O)n(CC(=O)NCc2ccc(F)c(Cl)c2)c(N2CCCCC2)n1
- RP-LC retention time: 716 s

Structure (SMILES): C=CCn1ccc2c(OCC(=O)Nc3cc(C)on3)cccc2c1=O
- RP-LC retention time: 750 s

Structure (SMILES): O=C(CCc1ccc2[nH]ccc2c1)N1CCN(c2ccc(F)cc2)CC1
- RP-LC retention time: 865 s

Structure (SMILES): N#CC1C=Cc2c(ccc3ccccc23)N1C(=O)c1ccccc1 (stereo not drawn)
- RP-LC retention time: 1090 s

Structure (SMILES): Cc1nn(CCCC(=O)N2CCN(c3ccccn3)CC2)c(=O)c2cc3sccc3n12
- RP-LC retention time: 587 s

Structure (SMILES): COC(=O)N1CCN(Cc2cccc(NC(=O)Nc3ccc(C)nc3)c2F)CC1
- RP-LC retention time: 577 s

Structure (SMILES): Cn1c(N2CCN(C(=O)c3ccc(F)c(Cl)c3)CC2)cc(=O)n(C)c1=O
- RP-LC retention time: 686 s

Structure (SMILES): O=S(=O)(c1ccc(F)cc1F)N1CCCC(Cn2c(C3CC3)nc3cccnc32)C1 (stereo not drawn)
- RP-LC retention time: 766 s

Structure (SMILES): Cc1cccc(N2CCN([C@H]3CS(=O)(=O)C[C@@H]3S(=O)(=O)c3ccccc3)CC2)c1C
- RP-LC retention time: 1060 s

Structure (SMILES): COc1ccc(C2c3sc(=O)[nH]c3SC3C(=O)N(CC(=O)O)C(=O)C32)cc1 (stereo not drawn)
- RP-LC retention time: 632 s

Structure (SMILES): CC(C)CC(=O)N1CCN(c2nc3ccccc3n(CC(C)C)c2=O)CC1
- RP-LC retention time: 1080 s

Structure (SMILES): O=C(Nc1ncc(-c2ccccc2)s1)c1ccc(S(=O)(=O)N2CCCCC2)cc1
- RP-LC retention time: 1040 s

Structure (SMILES): Cc1cc(C)cc(S(=O)(=O)Nc2ccc3c(c2)CCC(=O)N3CC(C)C)c1
- RP-LC retention time: 928 s

Structure (SMILES): Cn1c(N2CCCC(C(=O)NCc3ccc4c(c3)OCO4)C2)cc(=O)n(C)c1=O (stereo not drawn)
- RP-LC retention time: 671 s

Structure (SMILES): Nc1ccc(SCc2nc3cccc4c3n2CCC4)cc1
- RP-LC retention time: 662 s

Structure (SMILES): CC(C)CN1Cc2ccccc2-n2ccnc2C12CCN(C(=O)c1ccoc1)CC2
- RP-LC retention time: 665 s

Structure (SMILES): O=C(NCCCNc1nc(Nc2cccc(NC(=O)N3CCCC3)c2)ncc1I)c1cccs1
- RP-LC retention time: 691 s

Structure (SMILES): COc1cccc(CNC(=O)C2(C)Oc3cccnc3N(C)C2=O)c1 (stereo not drawn)
- RP-LC retention time: 748 s

Structure (SMILES): CCC1Oc2ccc(S(=O)(=O)N3CCC(C(=O)Nc4ccc(F)cc4)CC3)cc2NC1=O (stereo not drawn)
- RP-LC retention time: 866 s

Structure (SMILES): CC(C)C(=O)Nc1ccc(-c2nc(-c3ccc(Cl)cc3)no2)cc1
- RP-LC retention time: 1200 s

Structure (SMILES): O=c1n(CC2CC2)nc2n1CCC(NS(=O)(=O)c1cccc(F)c1)CC2 (stereo not drawn)
- RP-LC retention time: 717 s
